# Reference: patent US8785483B2, “Methods for treating COPD” (The Board of Regents of the University of Texas System, priority 2010, dated 2014)
# Legend:
# SAEC = assay: Cytokines, chemokines and growth factors by Milliplex in SAEC culture media after CSE; assay type: cell-based, human; conditions: 24 h after CSE (50%)
# Method: FIG. 2. CSE-induced changes in cytokine levels in SAEC prevented by aldose reductase (AR) inhibition. *p<0.01 Vs Control; **p<0.05 Vs CSE 50%; #p<0.001 Vs Control; ##p<0.01 Vs CSE 50% Primary human Small Airway Epithelial Cells (SAEC) obtained from Lonza (Walkersville, Md.) were normal human SAEC harvested from distal airspace of donor. The cells were cultured according to the supplier's instructions at 37° C. in humidified atmosphere containing 95% air and 5% CO2 in small airway epithelial basal medium (SABM) with supplements containing 52 μg/ml bovine pituitary extract, 0.5 ng/ml human recombinant epidermal growth factor (EGF), 0.5 μg/ml epinephrine, 1 μg/ml hydrocortisone, 10 μg/ml transferrin, 5 μg/ml insulin, 0.1 ng/ml retinoic acid (RA), 6.5 ng/ml triiodothyronine, 50 μg/ml Gentamicin/Amphotericin-B (GA-1000), and 50 μg/ml fatty acid-free bovine serum albumin (BSA). Research-grade cigarettes (1R3F) with a filter from the Kentucky Tobacco Research and Development Center at the University of Kentucky (Lexington, Ky.) were smoked to 0.5 cm above the filter in a fume hood, using a modification of the method developed by Carp and Janoff (Am Rev Respir Dis. 1978; 118(3):617-621). […] The levels of cytokines and chemokines in the supernatant were determined by Milliplex MAP kits according to the manufacturer's instructions (Millipore Corporation, Bellerica, Mass.)).
# [1] = system: goblet cell metaplasia in mice lungs; assay: RWE-induced goblet cell metaplasia in mice lungs (PAS stain); assay type: in vivo; conditions: RWE-sensitized and challenged mice, fidarestat 7 mg/kg body wt/day in drinking water, 72 h after challenge
# Method: FIGS. 10A-10B. Inhibition or deficiency of AR prevents RWE-induced goblet cell metaplasia in mice lungs. RWE-sensitized normal and AR-null mice were challenged with RWE and 72 h later the lungs were harvested from mice treated without or with AR inhibitor (A) or AR-null mice (B), perfused and fixed with 4% paraformaldehyde and embedded in paraffin. The sections were stained with PAS stain and observed under light microscope and photomicrographs were acquired. A representative photomicrograph from each group is shown (n=4). Magnification 200× (A); 400× (B).
# Wild type C57BL/6 and Balb/cJ mice were purchased from Harlan Sprague-Dawley (San Diego, Calif., USA) and AR null mice on C57BL/6 background were bread by us at Animal resource center, UTMB, Galveston, Tex. Six-eight weeks old female mice were sensitized with RWE as previously described (Hwang et al., FASEB J. 19: 795-797, 2005). Briefly, mice were sensitized with two intraperitoneal administrations of 100 μl of endotoxin-free RWE (150 μg) combined with Alum adjuvant (1 mg) in a 3:1 ratio (v/v), on days 0 and 4. On day 11, mice (n=6) were challenged intranasally with RWE (100 μg). A parallel group of mice received fidarestat (7 mg/kg body wt/day) in drinking water from one day before the challenge. Control groups of mice were challenged with equivalent volumes of PBS. […]
# [2] = system: small airway epithelial cells (SAEC); assay: Cell viability (MTT) assay, CSE-induced cell death; assay type: cell-based, human; conditions: 24 h, with fidarestat (10 μM in FIG. 1 legend, 20 μM in method)
# Method: FIG. 1. Inhibition of AR prevents cigarette smoke extract (CSE)-induced cell-death in small airway epithelial cells (SAEC). MTT assay was performed after incubating the cells for 24 h with different concentrations of CSE in absence and presence of 10 μM Fidarestat. Bars (Mean±SD; n=6) represent the absorbance at 570 nm corresponding to live cells. Primary human Small Airway Epithelial Cells (SAEC) obtained from Lonza (Walkersville, Md.) were normal human SAEC harvested from distal airspace of donor. The cells were cultured according to the supplier's instructions at 37° C. in humidified atmosphere containing 95% air and 5% CO2 in small airway epithelial basal medium (SABM) with supplements containing 52 μg/ml bovine pituitary extract, 0.5 ng/ml human recombinant epidermal growth factor (EGF), 0.5 μg/ml epinephrine, 1 μg/ml hydrocortisone, 10 μg/ml transferrin, 5 μg/ml insulin, 0.1 ng/ml retinoic acid (RA), 6.5 ng/ml triiodothyronine, 50 μg/ml Gentamicin/Amphotericin-B (GA-1000), and 50 μg/ml fatty acid-free bovine serum albumin (BSA). […] Absorbance was read at 570 nm using a 96-well ELISA plate reader.
structure (smiles),measurement,setting,value
"NC(=O)[C@@H]1C[C@]2(NC(=O)NC2=O)c2cc(F)ccc2O1 [fidarestat, (2S,4S)-2-aminoformyl-6-fluoro-spiro[chroman-4,4′-imidazolidine]-2′,5′-dione]","prevention of CSE-induced increase in chemokines (G-CSF, MCP-1, GM-CSF, IP-10) and growth factors (TGF-α, VEGF)",SAEC,more than 50%
same,"prevention of CSE-induced increase in cytokines (IL-1a, IL-8, TNF-α)",SAEC,significantly (p<0.05 and 0.01) prevented
same,PAS positive cells in the airway,[1],absent
same,cells alive after CSE,[2]; 12.5% CSE,more than 95%
same,cells alive after CSE,[2]; 50% CSE,> 85%
